Measured values taken from patent publication US10449181B2, “Treatment of autism and autism spectrum disorders (ASD)” (priority 2016, dated 2019).
Entries after “also recorded” stand apart in the source; their conditions may differ.

What was measured:
[1] = system: autistic children; details: eight week trial, 25 autistic children, unpublished data, not placebo-controlled; cited from earlier work
[2] = biological target: α3-GABAA receptors (Homo sapiens, UniProt P18507+P34903); details: recombinant receptors; cited from earlier work
Sequence of α3-GABAA receptors (P34903 29-492, one chain of several): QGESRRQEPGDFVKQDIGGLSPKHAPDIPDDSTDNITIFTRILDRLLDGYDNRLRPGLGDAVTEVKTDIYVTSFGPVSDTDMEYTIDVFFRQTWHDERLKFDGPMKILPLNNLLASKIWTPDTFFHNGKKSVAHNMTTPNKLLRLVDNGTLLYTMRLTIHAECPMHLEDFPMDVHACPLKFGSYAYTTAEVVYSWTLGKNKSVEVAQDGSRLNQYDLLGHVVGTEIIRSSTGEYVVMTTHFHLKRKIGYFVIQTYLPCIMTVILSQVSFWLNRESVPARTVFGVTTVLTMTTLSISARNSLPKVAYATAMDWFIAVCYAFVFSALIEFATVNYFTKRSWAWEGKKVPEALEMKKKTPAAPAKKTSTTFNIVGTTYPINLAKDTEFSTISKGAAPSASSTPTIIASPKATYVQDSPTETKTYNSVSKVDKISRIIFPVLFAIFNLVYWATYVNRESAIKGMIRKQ
Sequence of α3-GABAA receptors (P18507 40-475, one chain of several): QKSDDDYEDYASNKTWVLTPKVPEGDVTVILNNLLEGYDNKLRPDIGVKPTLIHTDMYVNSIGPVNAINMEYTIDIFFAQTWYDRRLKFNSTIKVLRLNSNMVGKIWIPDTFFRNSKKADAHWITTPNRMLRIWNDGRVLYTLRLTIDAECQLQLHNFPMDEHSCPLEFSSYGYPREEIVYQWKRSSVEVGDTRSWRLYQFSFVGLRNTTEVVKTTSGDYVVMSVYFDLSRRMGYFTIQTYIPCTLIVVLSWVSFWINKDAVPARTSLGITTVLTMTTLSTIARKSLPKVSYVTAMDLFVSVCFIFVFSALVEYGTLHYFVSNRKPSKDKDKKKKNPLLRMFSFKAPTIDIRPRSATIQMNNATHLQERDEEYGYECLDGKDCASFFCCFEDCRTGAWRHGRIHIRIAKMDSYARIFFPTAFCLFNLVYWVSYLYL

[3] = biological target: T1, α1β3 GABAA receptors (Homo sapiens, UniProt P14867); details: cited from earlier work
T1 sequence (P14867 28-456): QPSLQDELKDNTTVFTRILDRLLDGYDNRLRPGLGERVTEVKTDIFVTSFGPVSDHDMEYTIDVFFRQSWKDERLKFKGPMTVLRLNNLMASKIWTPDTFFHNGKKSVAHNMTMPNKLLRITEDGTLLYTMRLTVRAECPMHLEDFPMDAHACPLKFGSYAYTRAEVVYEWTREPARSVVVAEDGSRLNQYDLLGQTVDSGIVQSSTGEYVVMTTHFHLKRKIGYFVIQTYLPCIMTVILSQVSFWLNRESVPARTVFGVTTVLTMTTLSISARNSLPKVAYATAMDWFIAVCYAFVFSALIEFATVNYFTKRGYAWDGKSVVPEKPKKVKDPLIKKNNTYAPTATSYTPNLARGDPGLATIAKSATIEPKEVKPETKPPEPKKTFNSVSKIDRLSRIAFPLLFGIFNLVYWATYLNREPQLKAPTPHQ
T1 sequence (P28472 26-473 partner): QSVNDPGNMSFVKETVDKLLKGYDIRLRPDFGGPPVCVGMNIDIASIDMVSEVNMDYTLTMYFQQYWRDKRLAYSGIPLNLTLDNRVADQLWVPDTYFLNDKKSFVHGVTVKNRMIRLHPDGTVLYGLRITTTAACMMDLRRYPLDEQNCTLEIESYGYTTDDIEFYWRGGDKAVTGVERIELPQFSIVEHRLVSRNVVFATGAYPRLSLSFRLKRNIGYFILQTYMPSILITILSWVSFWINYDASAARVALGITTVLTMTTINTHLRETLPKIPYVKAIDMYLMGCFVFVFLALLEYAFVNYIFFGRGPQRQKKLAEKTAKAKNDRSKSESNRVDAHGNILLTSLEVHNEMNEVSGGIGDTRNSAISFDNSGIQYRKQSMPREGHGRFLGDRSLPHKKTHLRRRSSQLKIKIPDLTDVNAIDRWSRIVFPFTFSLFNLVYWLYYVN

[4] = system: subject with Autism Spectrum Disorder; experiment: Oral zolpidem dosing regimen in a subject with ASD; type: in vivo, human
Source text: Thus, classic BZs and zolpidem are likely to have different requirements for high-affinity binding to GABAA receptors (Sancar et al. 2007). […] Studies have shown that the sedative-hypnotic and anticonvulsant activities of zolpidem are due to its action on α1-GABAA receptors and not on α2- or α3-GABAA receptors (Crestani F et al., 2000).
Especially, the relief of the so-called “psychic pain” or “phantom pain” which was by far the most debilitating symptom of ASD with respect to the subject, was profound after the first dose.

[5] = biological target: T2, α5-GABAA receptors (Homo sapiens, UniProt P31644); details: recombinant receptors; cited from earlier work
T2 sequence (P31644 32-462): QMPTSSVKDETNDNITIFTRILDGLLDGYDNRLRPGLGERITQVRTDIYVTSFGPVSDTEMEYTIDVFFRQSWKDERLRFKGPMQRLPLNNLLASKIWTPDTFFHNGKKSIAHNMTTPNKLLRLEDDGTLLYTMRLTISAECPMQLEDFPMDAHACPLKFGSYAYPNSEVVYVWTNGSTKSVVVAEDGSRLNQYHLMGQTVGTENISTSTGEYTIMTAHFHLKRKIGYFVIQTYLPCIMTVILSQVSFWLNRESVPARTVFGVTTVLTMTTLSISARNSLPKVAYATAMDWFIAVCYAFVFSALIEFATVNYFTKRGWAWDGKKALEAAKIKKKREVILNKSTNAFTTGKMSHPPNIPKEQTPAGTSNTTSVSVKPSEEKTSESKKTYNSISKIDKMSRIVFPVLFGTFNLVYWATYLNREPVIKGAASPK

[6] = biological target: α2-GABAA receptors (Homo sapiens, UniProt P18507+P47869); details: recombinant receptors; cited from earlier work
Sequence of α2-GABAA receptors (P47869 29-451, one chain of several): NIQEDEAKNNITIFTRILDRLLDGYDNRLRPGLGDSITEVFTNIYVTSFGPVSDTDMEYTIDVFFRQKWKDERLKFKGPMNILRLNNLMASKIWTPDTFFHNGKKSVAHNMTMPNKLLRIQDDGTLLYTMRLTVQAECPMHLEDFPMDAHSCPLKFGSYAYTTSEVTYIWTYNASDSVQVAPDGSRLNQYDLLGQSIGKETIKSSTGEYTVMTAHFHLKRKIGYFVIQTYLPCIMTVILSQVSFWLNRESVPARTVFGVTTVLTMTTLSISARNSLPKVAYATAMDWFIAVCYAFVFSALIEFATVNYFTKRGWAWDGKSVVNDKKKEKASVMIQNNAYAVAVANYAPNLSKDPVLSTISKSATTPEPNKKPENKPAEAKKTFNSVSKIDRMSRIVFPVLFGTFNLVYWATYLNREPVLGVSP
Sequence of α2-GABAA receptors (P18507 40-475, one chain of several): as the sequence (P18507 40-475, one chain of several) above

[7] = biological target: α1-GABAA receptors (Homo sapiens, UniProt P14867+P18507); details: recombinant receptors; cited from earlier work
Sequence of α1-GABAA receptors (P18507 40-475, one chain of several): as above

Row | SMILES | measures of irritability and communications [1] | affinity to α3-GABAA receptors [2] | modulation of α1β3 GABAA receptors [3] | relief of the so-called psychic pain or phantom pain ([4]; after the first dose, one subject) | attenuation of at least one indicium of an ASD ([4]; oral, at least 30 mg every 3.5 hours around the clock, at least one subject) | duration of symptom-free state while on zolpidem ([4]; oral, at least 30 mg every 3.5 hours around the clock, one subject) | binding to α5-GABAA receptors [5] | affinity to α2-GABAA receptors [6] | affinity to α1-GABAA receptors [7]
1 | NC[C@H](CC(=O)O)c1ccc(Cl)cc1 [Arbaclofen] | significant improvements | – | – | – | – | – | – | – | –
2 | Cc1ccc(-c2nc3ccc(C)cn3c2CC(=O)N(C)C)cc1 [zolpidem] | – | intermediate affinity | potent stoichiometry-selective modulator | profound | almost complete attenuation; also recorded: immediate and almost complete | symptom-free and leading a normal life for at least five years | fails to bind | intermediate affinity | high affinity
